Assay results: patent US12568967B2, “Compositions comprising pyridine carboxylate herbicides with synthetic auxin herbicides or auxin transport inhibitors” (priority 2018, dated 2026)

Assays:
[1] = system: Amaranthus retroflexus (pigweed, AMARE); experiment: Greenhouse postemergence trial AMARE; assay type: in vivo;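 also: Greenhouse-grown plants sprayed at second to third true leaf stage, injury rated by eye after 20-22 d versus solvent-blank sprayed controls, 0 = no injury, 100 = complete kill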
Description: (§1) The plants were grown for 7-36 days (d) in a greenhouse with an approximate 14-hour (h) photo-period which was maintained at about 23° C. during the day and 22° C. during the night. Nutrients and water were added on a regular basis and supplemental lighting was provided with overhead metal halide 1000-Watt lamps as necessary. The plants were employed for testing when they reached the second or third true leaf stage.
(§2) The emulsifiable concentrates also included a safener, cloquintocet-mexyl, at 120 grams active ingredient per liter (g ai/L), unless otherwise noted below.
(§3) Control plants were sprayed in the same manner with the solvent blank. All pyridine carboxylate herbicide (component a) application rates are given as “g ae/ha” and all synthetic auxin herbicide or auxin transport inhibitor (component b) application rates are given as “g ai/ha.”
(§4) The treated plants and control plants were placed in a greenhouse as described above and watered by sub-irrigation to prevent wash-off of the test compounds. After 20-22 d, the condition of the test plants as compared with that of the control plants was determined visually and scored on a scale of 0 to 100 percent where 0 corresponds to no injury and 100 corresponds to complete kill.

[2] = system: Salsola kali (Russian thistle, SASKR); experiment: Greenhouse postemergence trial SASKR; assay type: in vivo; settings: SASKR;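 also: greenhouse plants sprayed at second or third true leaf stage, injury rated by eye after 20-22 d against solvent-blank controls, 0 meaning no injury, 100 complete kill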
Description: as §1, §2, §3, §4

[3] = system: Chenopodium album L. (common lambsquarters, CHEAL); experiment: Greenhouse postemergence trial CHEAL; assay type: in vivo;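 also: greenhouse plants sprayed at second to third true leaf stage, injury rated by eye after 20-22 d versus solvent-blank sprayed controls, 0 = no injury, 100 = complete kill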
[4] = system: Hordeum vulgare (spring barley, HORVS); assay type: in vivo
[5] = system: Matricaria chamomilla (wild chamomile, MATCH); experiment: Greenhouse postemergence trial MATCH; assay type: in vivo; settings: MATCH;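 also: greenhouse plants sprayed at second to third true leaf stage, injury rated by eye 20-22 d later versus solvent-blank controls on 0–100 scale, 0 no injury, 100 complete kill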
Description: as §1, §2, §3, §4

[6] = system: Cirsium arvense (Canadian thistle, CIRAR); experiment: Greenhouse postemergence trial CIRAR; assay type: in vivo
[7] = system: Polygonum convolvulus (wild buckwheat, POLCO); experiment: Greenhouse postemergence trial POLCO; assay type: in vivo; settings: POLCO
[8] = system: Sinapis arvensis (wild mustard, SINAR); experiment: Greenhouse postemergence trial SINAR; assay type: in vivo; settings: SINAR
[9] = system: Brassica napus (winter rape, BRSNW); experiment: Greenhouse postemergence trial BRSNW; assay type: in vivo
[10] = system: Triticum aestivum (spring wheat, TRZAS); assay type: in vivo
Description: (§5) Seeds of the desired test plant species were planted in a 90:10% v/v (volume/volume) mixture of PRO-MIX® BX (Premier Tech Horticulture, Quakertown, PA, USA) and PROFILE® GREENS GRADE™ (Profile Products LLC, Buffalo Grove, IL, USA) planting mixture, which typically has a pH of 5.2 to 6.2 and an organic matter content of at least 50 percent, in plastic pots with a surface area of 103.2 square centimeters (cm^2). […] The plants were grown for 7-36 days (d) in a greenhouse with an approximate 14-hour (h) photo-period which was maintained at about 23° C. during the day and 22° C. during the night. Nutrients and water were added on a regular basis and supplemental lighting was provided with overhead metal halide 1000-Watt lamps as necessary. The plants were employed for testing when they reached the second or third true leaf stage.
(§6) Emulsifiable concentrates of each of each pyridine carboxylate herbicide (Compound A or Compound B) were prepared at 100 grams acid equivalent per liter (g ae/L). The emulsifiable concentrates also included a safener, cloquintocet-mexyl, at 120 grams active ingredient per liter (g ai/L), unless otherwise noted below. An aliquot of each emulsifiable concentrate was placed in a 25 mL glass vial and diluted with an aqueous mixture of 1.25% (v/v) ACTIROB® B esterified rapeseed oil (Bayer Crop Science, Research Triangle Park, NC, USA) or MSO® Concentrate with LECI-TECH® methylated soybean oil (Loveland Products, Loveland, CO, USA) to obtain concentrated stock solutions at the highest application rate for each herbicide, based upon a 12 milliliter (mL) application volume at a rate of 187 liters per hectare (L/ha). The concentrated stock solutions were further diluted with an aqueous mixture of 1.25% v/v ACTIROB® B or MSO® Concentrate with LECI-TECH® to obtain stock solutions at reduced application rates for each herbicide. Spray solutions of the herbicide combinations (Compound A or Compound B plus synthetic auxin herbicide or auxin transport inhibitor) were prepared by adding weighed amounts or aliquots of the synthetic auxin herbicide or auxin transport inhibitor to the stock solutions of Compound A or Compound B to form 12-mL spray solutions in two-way combinations.
(§7) The spray solutions were applied to the plant material with an overhead Mandel track sprayer equipped with 8002E nozzles calibrated to deliver 187 L/ha over an application area of 0.503 square meters (m^2) at a spray height of 18 inches (43 centimeters (cm)) above the average plant canopy. Control plants were sprayed in the same manner with the solvent blank. All pyridine carboxylate herbicide (component a) application rates are given as “g ae/ha” and all synthetic auxin herbicide or auxin transport inhibitor (component b) application rates are given as “g ai/ha.”
as §4

[11] = system: Kochia scoparia (kochia, KCHSC); experiment: Greenhouse postemergence trial KCHSC; assay type: in vivo; settings: KCHSC
[12] = system: Viola arvensis (field violet, VIOAR); experiment: Greenhouse postemergence trial VIOAR; assay type: in vivo; settings: VIOAR; partner herbicide 560 g/ha alone
[13] = system: Matricaria discoidea (pineapple weed, MATMT); experiment: Greenhouse postemergence trial MATMT; assay type: in vivo; settings: MATMT; partner herbicide 560 g/ha alone
Description: as §5, §6, §7, §4

[14] = system: Veronica persica (bird's-eye speedwell, VERPE); experiment: Greenhouse postemergence trial VERPE; assay type: in vivo; settings: VERPE; partner herbicide 560 g/ha alone
Description: as §5, §6, §7, §4

[15] = system: Papaver rhoeas (corn poppy, PAPRH); experiment: Greenhouse postemergence trial PAPRH; assay type: in vivo; settings: PAPRH; partner herbicide 560 g/ha alone
Description: as §5, §6, §7, §4

[16] = system: Veronica hederifolia (ivyleaf speedwell, VERHE); experiment: Greenhouse postemergence trial VERHE; assay type: in vivo; settings: VERHE; partner herbicide 560 g/ha alone
[17] = system: Capsella bursa-pastoris (shepherd's purse, CAPBP); experiment: Greenhouse postemergence trial CAPBP; assay type: in vivo; settings: CAPBP; partner herbicide 560 g/ha alone
[18] = system: Lamium purpureum (purple deadnettle, LAMPU); experiment: Greenhouse postemergence trial LAMPU; settings: LAMPU; partner herbicide 560 g/ha alone
Description: as §1, §2, §3, §4

[19] = system: Viola tricolor (wild pansy, VIOTR); experiment: Greenhouse postemergence trial VIOTR; settings: VIOTR; partner herbicide 560 g/ha alone;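 also: greenhouse plants sprayed at second to third true leaf stage, injury rated visually after 20-22 d against solvent-blank sprayed controls, 0 meaning no injury and 100 complete kill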
[20] = system: Cyanus segetum (cornflower, CENCY); experiment: Greenhouse postemergence trial CENCY; assay type: in vivo; settings: CENCY; partner herbicide 560 g/ha alone
[21] = system: Stellaria media (chickweed, STEME); experiment: Greenhouse postemergence trial STEME; assay type: in vivo; settings: STEME; partner herbicide 560 g/ha alone
[22] = system: Papaver rhoeas (corn poppy), herbicide-resistant (PAPRH-R); experiment: Greenhouse postemergence trial PAPRH-R; assay type: in vivo; settings: PAPRH-R; partner herbicide 560 g/ha alone
[23] = system: Matricaria inodora (false chamomile, MATIN); experiment: Greenhouse postemergence trial MATIN; assay type: in vivo; settings: MATIN; partner herbicide 560 g/ha alone
[24] = system: Triticum aestivum (winter wheat, TRZAW); experiment: Greenhouse postemergence crop phytotoxicity TRZAW; assay type: in vivo; settings: TRZAW; partner herbicide 560 g/ha alone
[25] = system: Hordeum vulgare (winter barley, HORVW); experiment: Greenhouse postemergence crop phytotoxicity HORVW; assay type: in vivo; settings: HORVW; partner herbicide 560 g/ha alone
Description: as §5, §6, §7, §4

[26] = system: Anthemis arvensis (field chamomile, ANTAR); experiment: Greenhouse postemergence trial ANTAR; assay type: in vivo; settings: ANTAR; partner herbicide 560 g/ha alone
Description: as §5, §6, §7, §4

[27] = partner herbicide 560 g/ha alone

COC(=O)c1nc(-c2ccc(Cl)c(OC)c2F)cc(N)c1Cl [Halatvcifen-methyl]
% visual injury, Obs ([1]; AMARE, applied alone, 3 g/ha): 68%
% visual injury, Obs ([2]; applied alone, 3 g/ha): 73%
% visual injury, Obs ([3]; CHEAL, applied alone, 3 g/ha): 83%
% visual injury, Obs ([4]; HORVS, applied alone, 3 g/ha): 0%
% visual injury, Obs ([5]; applied alone, 3 g/ha): 5%
% visual injury, Obs ([6]; CIRAR, applied alone, 3 g/ha): 10%
% visual injury, Obs ([7]; applied alone, 3 g/ha): 20%
% visual injury, Obs ([8]; applied alone, 3 g/ha): 40%
% visual injury, Obs ([9]; BRSNW, applied alone, 3 g/ha): 15%
% visual injury, Obs ([10]; TRZAS, applied alone, 3 g/ha): 0%
% visual injury, Obs ([11]; applied alone, 3 g/ha): 40%

Cc1cc(Cl)ccc1OCC(=O)O [MCPA-DMA, MCPA-dimethylammonium, reference compound]
% visual injury ([1]; in vivo): 63%
% visual injury ([3]; in vivo): 75%
% visual injury (crop phytotoxicity) ([4]; Hordeum vulgare (spring barley, HORVS), in vivo): 0%
HORVS % visual injury Obs ([4]; in vivo): 0%
CIRAR % visual injury Obs ([6]; in vivo): 60%
BRSNW % visual injury Obs ([9]; MCPA-DMA 400 g/ha (Table 37)): 83%
% visual injury (crop phytotoxicity) ([10]; Triticum aestivum (spring wheat, TRZAS), in vivo): 0%
TRZAS % visual injury Obs ([10]; in vivo): 0%

Cc1cc(Cl)ccc1OCC(=O)O [MCPA]
visual injury, Obs [12]: 20%
visual injury, Obs [13]: 5%
visual injury, Obs [2, 27]: 30%
visual injury, Obs ([4]; HORVS, partner herbicide 560 g/ha alone): 0%
visual injury, Obs [14]: 60%
visual injury, Obs [15]: 95%
visual injury, Obs [16]: 65%
visual injury, Obs [17]: 60%
visual injury, Obs [18]: 10%
visual injury, Obs [19]: 60%
visual injury, Obs [20]: 95%
visual injury, Obs [21]: 50%
visual injury, Obs [22]: 60%
visual injury, Obs [5, 27]: 30%
visual injury, Obs [23]: 50%
visual injury, Obs ([6]; CIRAR, partner herbicide 560 g/ha alone): 65%
visual injury, Obs [7, 27]: 30%
visual injury, Obs [24]: 0%
visual injury, Obs [8, 27]: 100%
visual injury, Obs ([9]; BRSNW, partner herbicide 560 g/ha alone): 90%
visual injury, Obs [25]: 0%
visual injury, Obs [26]: 60%
visual injury, Obs ([10]; TRZAS, partner herbicide 560 g/ha alone): 0%
visual injury, Obs [11, 27]: 30%
